# Data taken from patent US6458838B1, “Adrenoleukodystrophy treatments” (Johns Hopkins University, priority 1999, dated 2002).
# What was measured:
# [1] = test system: human primary fibroblasts derived from X-ALD patients; assay: VLCFA (C24:0, C26:0) levels in cultured cells, capillary GC; assay type: cell-based
# From the text: The genotypes of the X-ALD patients included missense, nonsense, frame shift and deletion mutations and all of the main clinical phenotypes.
# After two days of treatment, a time-dependent reduction in VLCFA levels in human and mouse X-ALD cell lines was observed. In human lymphoblastoid cells and mouse fibroblasts, C24:0 and C26:0 levels were normalized within 10 days of treatment, In human X-ALD fibroblasts, C24:0 levels were normalized within 10 days, whereas C26:0 levels were reduced by 47% after 22 days. The results obtained were independent of genotype or phenotype.
# Cell culture and 4-PBA treatment. Cell lines derived from X-ALD patients and X-ALD mice were grown in MEM (fibroblasts) or RPMI (ymphoblastoid cells) supplemented with fetal calf serum (10%), penicillin (100 U/ml), streptomycin (100 U/mi) and glutamine (2 mM). […]
# Biochemical measurements. […] C24:0 β-oxidation activity of human and mouse fibroblasts and human lymphoblastoid cells was determined by measuring their capacity to degrade [1-^14C]-C24:0 fatty acid (American Radiolabeled Chemicals, St Louis, Mo.) to water-soluble products as described. Phytanic acid oxidation was measured as described. Cells were incubated with [2,3-^3H]-phytanic acid for 24 hours, and the release of ^3H-H2O to the aqueous medium was determined (activity in pmol/hr per mg protein).
# [2] = test system: ALDP; assay: Semi-quantitative RT-PCR in primary fibroblasts; assay type: cell-based, mouse; conditions: normal primary fibroblasts, 5 mM 4-PBA for 2 days
# Method: (§1) Semi-quantitative RT-PCR was done on the mRNA isolated from these cells (FIG. 1). […] In addition, the expression of acyl-CoA oxidase (AOX), the rate-limiting enzyme in VLCFA β-oxidation, was not affected. Although previous studies have reported that ALDR mRNA was not detectable in fibroblasts by either northern or RT-PCR analyses, those RT-PCR studies used about 66 ng of CDNA; we used about 250 ng of cDNA.
# (§2) Semi-quantitative RT-PCR analysis. Total RNA from tissue culture cells (10^6-10^7 cells/sample) was isolated using TRizol Reagent™ (Life Technologies), treated with DNase I (100-200 units in 40 mM HCI, 10 mM NaCl, 6 mM MgCl2, pH 7.3), incubated at 37° C. for 30 min, extracted with phenol/chloroform, and precipitated with isopropanol. cDNA was generated using MMLV reverse transcriptase (RT) (Life Technologies). PCR was done in the linear range of amplification (determined for each primerpair-cDNA combination). For each cDNA sample, a ‘cocktail’ was prepared, containing PCR buffer (Promega), 200 µM of each DNTP, 1.5 mM MgCl2, 250 ng cDNA, 0.25 U of Taq polymerase (Promega) and […]. The ‘cocktail’ was divided into separate tubes containing cDNA specific primers.
# (§3) Primers. The PCR primers used are listed below. In the parentheses, h indicates human and m, mouse; this is followed by the gene name, product size and annealing temperature. […]
# [3] = test system: PMP70; assay: Semi-quantitative RT-PCR in primary fibroblasts; assay type: cell-based, mouse; conditions: X-ALD or normal primary fibroblasts, 5 mM 4-PBA for 2 days
# Method: as §1, §2, §3
structure (smiles),measurement,setting,value
"O=C(O)CCCc1ccccc1 [4-PBA, 4-Phenyl butyrate]",C26:0 levels reduced by,"[1]; 5 mM 4-PBA, after 22 days",47%
same,effect of concentration on VLCFA levels,"[1]; between 1 mM and 5 mM 4-PBA, human X-ALD fibroblasts and lymphoblastoid cells, data not shown",dose-dependent decrease
same,ALDP expression (mRNA),[2],"little, if any, effect"
same,PMP70 expression level,[3],"little, if any, effect"
